# Laboratory results reported in US5441941A, “1,2-dihydroellipticines with activity against CNS specific cancer” (The United States of America as represented by the …, priority 1993, dated 1995).
# Tests used:
# MOLT-4 = assay: cells; settings: Homo sapiens
# OVCAR-5 = assay: NCI in vitro screen, SRB percent growth, Ovarian Cancer
# SF-539 = assay: NCI in vitro screen, SRB percent growth, CNS Cancer
# TK-10 = assay: NCI in vitro screen, SRB percent growth, Renal Cancer
# U251 = assay: NCI in vitro screen, SRB percent growth, CNS Cancer
# CAKI-1 = assay: NCI in vitro screen, SRB percent growth, Renal Cancer
# CCRF-CEM = assay: NCI in vitro screen, SRB percent growth, Leukemia
# IGROV1 = assay: NCI in vitro screen, SRB percent growth, Ovarian Cancer
# LXFL 529 = assay: cells; settings: Homo sapiens
# UACC-257 = assay: NCI in vitro screen, SRB percent growth, Melanoma
# SK-OV-3 = assay: NCI in vitro screen, SRB percent growth, Ovarian Cancer
# SF-295 = assay: NCI in vitro screen, SRB percent growth, CNS Cancer
# RXF-631 = assay: NCI in vitro screen, SRB percent growth, Renal Cancer
# XF 498 = assay: NCI in vitro screen, SRB percent growth, CNS Cancer
# A549/ATCC = assay: NCI in vitro screen, SRB percent growth, Non-Small Cell Lung Cancer
# KM12 = assay: NCI in vitro screen, SRB percent growth, Colon Cancer
# [1] = MOLT-4, read-out: Percent Growth
# [2] = Log10 Concentration -4.0, 100 µM
# [3] = Log10 Concentration -7.0, 0.1 µM
# [4] = LXFL 529, read-out: Percent Growth
smiles,measurement,setting,value
Cc1ccc2[nH]c3c(C)c4c(c(C)c3c2c1)CN(C)C=C4 [Formula XI],GI50,MOLT-4; MOLT-4,2.14 µM
same,CC50,"MOLT-4; MOLT-4, read-out: LC-50",> 100 µM
same,activity at 0.01 µM,MOLT-4; [1],104%
same,activity at 0.1 µM,MOLT-4; [1],101%
same,activity at 1 µM,MOLT-4; [1],68%
same,activity at 10 µM,MOLT-4; [1],14%
same,activity at 100 µM,MOLT-4; [1],-50%
same,IC (TGI),"MOLT-4; MOLT-4, read-out: TGI",16.5 µM
same,Percent Growth,OVCAR-5; [2],-83%
same,Percent Growth,OVCAR-5; Log10 Concentration -5.0,19%
same,Percent Growth,"OVCAR-5; Log10 Concentration -6.0, 1 µM",97%
same,Percent Growth,OVCAR-5; [3],113%
same,Percent Growth,OVCAR-5; Log10 Concentration -8.0,108%
same,TGI,OVCAR-5; PG=0,15.2 µM
same,GI50,OVCAR-5; PG=+50,3.99 µM
same,CC50,"OVCAR-5; read-out: LC-50, PG=-50",47.4 µM
same,Percent Growth,SF-539; [2],-90%
same,Percent Growth,SF-539; Log10 Concentration -5.0,-58%
same,Percent Growth,"SF-539; Log10 Concentration -6.0, 1 µM",6%
same,Percent Growth,SF-539; [3],92%
same,Percent Growth,SF-539; Log10 Concentration -8.0,99%
same,TGI,SF-539; PG=0,1.23 µM
same,GI50,SF-539; PG=+50,0.305 µM
same,CC50,"SF-539; read-out: LC-50, PG=-50",7.56 µM
same,Percent Growth,TK-10; [2],-93%
same,Percent Growth,TK-10; Log10 Concentration -5.0,49%
same,Percent Growth,"TK-10; Log10 Concentration -6.0, 1 µM",90%
same,Percent Growth,TK-10; [3],101%
same,Percent Growth,TK-10; Log10 Concentration -8.0,103%
same,TGI,TK-10; PG=0,22.1 µM
same,GI50,TK-10; PG=+50,9.46 µM
same,CC50,"TK-10; read-out: LC-50, PG=-50",49.6 µM
same,Percent Growth,U251; Log10 Concentration -5.0,-72%
same,Percent Growth,"U251; Log10 Concentration -6.0, 1 µM",3%
same,Percent Growth,U251; [3],89%
same,Percent Growth,U251; Log10 Concentration -8.0,99%
same,TGI,U251; PG=0,1.1 µM
same,GI50,U251; PG=+50,0.286 µM
same,CC50,"U251; read-out: LC-50, PG=-50",5.12 µM
same,Percent Growth,CAKI-1; [2],-89%
same,Percent Growth,"CAKI-1; Log10 Concentration -6.0, 1 µM",56%
same,Percent Growth,CAKI-1; [3],106%
same,Percent Growth,CAKI-1; Log10 Concentration -8.0,116%
same,TGI,CAKI-1; PG=0,5.89 µM
same,GI50,CAKI-1; PG=+50,1.21 µM
same,CC50,"CAKI-1; read-out: LC-50, PG=-50",28.8 µM
same,Percent Growth,CCRF-CEM; [2],-35%
same,Percent Growth,CCRF-CEM; Log10 Concentration -5.0,13%
same,Percent Growth,"CCRF-CEM; Log10 Concentration -6.0, 1 µM",74%
same,Percent Growth,CCRF-CEM; [3],94%
same,Percent Growth,CCRF-CEM; Log10 Concentration -8.0,102%
same,TGI,CCRF-CEM; PG=0,18 µM
same,GI50,CCRF-CEM; PG=+50,2.48 µM
same,CC50,"CCRF-CEM; read-out: LC-50, PG=-50",> 100 µM
same,Percent Growth,IGROV1; [2],-73%
same,Percent Growth,IGROV1; Log10 Concentration -5.0,-15%
same,Percent Growth,"IGROV1; Log10 Concentration -6.0, 1 µM",30%
same,Percent Growth,IGROV1; [3],85%
same,Percent Growth,IGROV1; Log10 Concentration -8.0,97%
same,TGI,IGROV1; PG=0,4.71 µM
same,GI50,IGROV1; PG=+50,0.438 µM
same,CC50,"IGROV1; read-out: LC-50, PG=-50",39.9 µM
same,GI50,LXFL 529; LXFL 529,0.353 µM
same,CC50,"LXFL 529; LXFL 529, read-out: LC-50",9.23 µM
same,activity at 0.01 µM,LXFL 529; [4],78%
same,activity at 0.1 µM,LXFL 529; [4],68%
same,activity at 1 µM,LXFL 529; [4],35%
same,activity at 10 µM,LXFL 529; [4],-53%
same,activity at 100 µM,LXFL 529; [4],-84%
same,IC (TGI),"LXFL 529; LXFL 529, read-out: TGI",2.51 µM
same,Percent Growth,UACC-257; [2],-87%
same,Percent Growth,UACC-257; Log10 Concentration -5.0,-8%
same,Percent Growth,"UACC-257; Log10 Concentration -6.0, 1 µM",86%
same,Percent Growth,UACC-257; [3],90%
same,Percent Growth,UACC-257; Log10 Concentration -8.0,97%
same,TGI,UACC-257; PG=0,8.23 µM
same,GI50,UACC-257; PG=+50,2.43 µM
same,CC50,"UACC-257; read-out: LC-50, PG=-50",34.3 µM
same,Percent Growth,SK-OV-3; [2],-58%
same,Percent Growth,SK-OV-3; Log10 Concentration -5.0,-16%
same,Percent Growth,"SK-OV-3; Log10 Concentration -6.0, 1 µM",36%
same,Percent Growth,SK-OV-3; [3],59%
same,Percent Growth,SK-OV-3; Log10 Concentration -8.0,87%
same,TGI,SK-OV-3; PG=0,4.87 µM
same,GI50,SK-OV-3; PG=+50,0.25 µM
same,CC50,"SK-OV-3; read-out: LC-50, PG=-50",63.3 µM
same,Percent Growth,SF-295; [2],-91%
same,Percent Growth,SF-295; Log10 Concentration -5.0,-31%
same,Percent Growth,"SF-295; Log10 Concentration -6.0, 1 µM",23%
same,Percent Growth,SF-295; [3],87%
same,Percent Growth,SF-295; Log10 Concentration -8.0,92%
same,TGI,SF-295; PG=0,2.68 µM
same,GI50,SF-295; PG=+50,0.381 µM
same,CC50,"SF-295; read-out: LC-50, PG=-50",20.7 µM
same,Percent Growth,RXF-631; [2],-78%
same,Percent Growth,RXF-631; Log10 Concentration -5.0,-8%
same,Percent Growth,"RXF-631; Log10 Concentration -6.0, 1 µM",30%
same,Percent Growth,RXF-631; [3],74%
same,Percent Growth,RXF-631; Log10 Concentration -8.0,95%
same,TGI,RXF-631; PG=0,6.25 µM
same,GI50,RXF-631; PG=+50,0.352 µM
same,CC50,"RXF-631; read-out: LC-50, PG=-50",39.5 µM
same,Percent Growth,XF 498; [2],-57%
same,Percent Growth,XF 498; Log10 Concentration -5.0,-33%
same,Percent Growth,"XF 498; Log10 Concentration -6.0, 1 µM",46%
same,Percent Growth,XF 498; [3],98%
same,Percent Growth,XF 498; Log10 Concentration -8.0,101%
same,TGI,XF 498; PG=0,3.84 µM
same,GI50,XF 498; PG=+50,0.851 µM
same,CC50,"XF 498; read-out: LC-50, PG=-50",50.4 µM
same,Percent Growth,A549/ATCC; [2],-66%
same,Percent Growth,A549/ATCC; Log10 Concentration -5.0,-15%
same,Percent Growth,"A549/ATCC; Log10 Concentration -6.0, 1 µM",33%
same,Percent Growth,A549/ATCC; [3],86%
same,Percent Growth,A549/ATCC; Log10 Concentration -8.0,96%
same,TGI,A549/ATCC; PG=0,4.9 µM
same,GI50,A549/ATCC; PG=+50,0.469 µM
same,CC50,"A549/ATCC; read-out: LC-50, PG=-50",48.5 µM
same,Percent Growth,KM12; [2],-93%
same,Percent Growth,KM12; Log10 Concentration -5.0,-48%
same,Percent Growth,"KM12; Log10 Concentration -6.0, 1 µM",38%
same,Percent Growth,KM12; [3],95%
same,Percent Growth,KM12; Log10 Concentration -8.0,97%
same,TGI,KM12; PG=0,2.78 µM
same,GI50,KM12; PG=+50,0.622 µM
same,CC50,"KM12; read-out: LC-50, PG=-50",11 µM
